{
  "source": "patent US20240317732A1",
  "about": "“A NEW MOLECULAR SCAFFOLD FOR TARGETING HRPN13” (THE UNITED STATES OF AMERICA AS REPRESENTED BY THE …, priority 2021, published 2024)",
  "key": {"RPMI 8226 WT cells": {"test_system": "RPMI 8226 WT cells", "assay": "Apoptosis by cleaved caspase-9 immunoblot in RPMI 8226 WT", "assay_type": "cell-based", "details": "40 μM PROTAC or 20 μM XL5-S2", "method": "RPMI 8226 WT or trRpn13-MM2 (MM2) cells were treated with 40 μM XL5-VHL-2, 40 μM XL5-VHL-3 or DMSO (vehicle control) and the whole cell extract immunoprobed for hRpn13 or cleaved caspase-9 with β-actin as a loading control. A black asterisk indicates cleaved caspase-9 in the 2-min immunoblot for hRpn13, as hRpn13 was probed following cleaved caspase-9 and without stripping the membrane.\nRPMI 8226 WT or trRpn13-MM2 cells were treated with 20 μM XL5-S2 or DMSO (vehicle control) and the whole cell extract immunoprobed for hRpn13 or cleaved caspase-9, with β-actin as a loading control. A black asterisk indicates cleaved caspase-9 in the 5-min immunoblot for hRpn13, as hRpn13 was probed following cleaved caspase-9 and without stripping the membrane.\nHCT116 WT, HCT116 trRpn13, RPMI 8226 or 293T cells were collected and washed with PBS followed by lysing in 1% Triton-TBS lysis buffer (50 mM Tris-HCl, pH 7.5, 150 mM NaCl, 1 mM PMSF) supplemented with protease inhibitor cocktail (Roche). Total protein concentration was determined by bicinchoninic acid (Pierce). Protein lysates were prepared in 1χ LDS (ThermoFisher, NP0007) buffer with 100 mM DTT and heating at 70° C. for 10 min, loaded onto 4-12% Bis-Tris polyacrylamide gels (Life Technologies), subjected to SDS-PAGE and transferred to Invitrolon polyvinylidene difluoride membranes (Life Technologies). […]"}, "HCT116 WT cells": {"test_system": "HCT116 WT cells", "assay": "MTT cell metabolism / cell viability assay in HCT116 WT", "assay_type": "cell-based", "details": "read-out: XL5-VHL-2 Sensitivity (IC50, μM) Cell viability assay", "method": "(§1) Since previous hRpn13-targeting molecules induce apoptosis in multiple myeloma and colon cancer cells we tested whether XL5 restricts the RPMI 8226 multiple myeloma and HCT116 colon cancer cell lines by measuring metabolism with an MTT (3-(4,5-dimethylthiazol-2-yl)-2,5-diphenyltetrazolium bromide) assay. Experiments were also conducted in parallel with a HCT116 colon cancer cell line in which the exon encoding hRpn13 C88 is deleted, named trRpn13; this cell line expresses a truncated hRpn13 protein with a defective Pru and inability to bind the proteasome28. RPMI 8226 and WT (wild-type) or trRpn13 HCT116 cells seeded at 8,000 and 4,000 cells per well were treated with varying concentrations of XL5 extending to 40 μM and compared to cells incubated with equivalent amounts of DMSO vehicle control.\nHCT116 WT or trRpn13 cells were seeded at 4,000 cells/well whereas RPMI 8226 cells were seeded at 8,000 cells/well with RPMI 1640 medium (no phenol red, Thermo Fisher Scientific 11835030) containing 2% fetal bovine serum in 96-well plates. Cells were treated with 0.4% DMSO (as a control) and this concentration was maintained with XL5, XL5-PROTACs XL5-VHL, XL5-VHL-2, XL5-CRBN, or XL5-IAP, and E3 ligands VHL-Ac, thalidomide (Selleckchem, catalog NO. S1193), or IAP-Bz at 10 μM, 20 μM, 30 μM or 40 μM concentration. […] Absorbance at 570 nm was measured by using CLARIOstar (BMG LABTECH)."}, "[1]": {"test_system": "RPMI 8226 trRpn13-MM2 cells", "assay": "MTT cell viability assay in RPMI 8226 trRpn13-MM2", "assay_type": "cell-based", "details": "RPMI 8226 trRpn13-MM2, 48 hours, compared to WT", "method": "FIGS. 11A-11C show hRpn13-Pru PROTACs with different linkers restrict cell viability in an hRpn13 Pru-dependent manner. RPMI 8226 WT (darker shades) or trRpn13-MM2 (lighter shades) cells were treated with the indicated concentration of XL5-VHL-2 (FIG. 11A), XL5-VHL-3 (FIG. 11A), XL5-VHL-4 (FIG. 11B) or XL5-VHL-5 (FIG. 11C) for 48 hours and cell metabolism measured by an MTT assay; data represent mean±SD of n=6 biological replicates. Viability is calculated as (λ570)sample/(λ570)control×100(%)."}, "MM.1S cells": {"test_system": "MM.1S cells", "assay": "MTT cell viability assay in MM.1S", "assay_type": "cell-based", "details": "read-out: XL5-VHL-2 Sensitivity (IC50, μM) Cell viability assay", "method": "The mass spectra (upper panel) were deconvoluted from the UV peak (lower panel) indicated with a black arrow. […] Viability is calculated as (λ570)sample/(λ570)control×100(%). […] Immunoprobing for cleaved caspase-9 and hRpn13 was done separately with re-probing for β-actin. […] A dashed line indicates the value […]."}, "hRpn13 / hRpn13-Pru": {"test_system": "hRpn13 / hRpn13-Pru", "assay": "Immunoblot of hRpn13 species in RPMI 8226 cell lysates", "assay_type": "cell-based, human", "details": "RPMI 8226, 40 μM, 24 hours", "method": "HCT116 WT, HCT116 trRpn13, RPMI 8226 or 293T cells were collected and washed with PBS followed by lysing in 1% Triton-TBS lysis buffer (50 mM Tris-HCl, pH 7.5, 150 mM NaCl, 1 mM PMSF) supplemented with protease inhibitor cocktail (Roche). Total protein concentration was determined by bicinchoninic acid (Pierce). Protein lysates were prepared in 1χ LDS (ThermoFisher, NP0007) buffer with 100 mM DTT and heating at 70° C. for 10 min, loaded onto 4-12% Bis-Tris polyacrylamide gels (Life Technologies), subjected to SDS-PAGE and transferred to Invitrolon polyvinylidene difluoride membranes (Life Technologies). The membranes were blocked in Tris-buffered saline with 0.1% Tween-20 (TBST) supplemented with 5% skim milk, incubated with primary antibody, washed in TBST, incubated with secondary antibody and washed extensively in TBST. Pierce™ ECL Western Blotting Substrate (32106; Thermo Fisher Scientific) or Amersham™ ECL™ Primer Western Blotting Detection Reagent (cytiva) was used for antibody signal detection.\nTo test whether the XL5-PROTACs cause ubiquitination and degradation of hRpn13, lysates from RPMI 8226 (FIG. 5C) cells treated with 40 μM XL5 orXL5-PROTAC compared to DMSO vehicle control were immunoprobed for hRpn13 and β-actin (loading control)."}, "RPMI 8226 cells": {"test_system": "RPMI 8226 cells", "assay": "MTT cell metabolism / cell viability assay in RPMI 8226", "assay_type": "cell-based", "method": "as §1\nHCT116 WT or trRpn13 cells were seeded at 4,000 cells/well whereas RPMI 8226 cells were seeded at 8,000 cells/well with RPMI 1640 medium (no phenol red, Thermo Fisher Scientific 11835030) containing 2% fetal bovine serum in 96-well plates. Cells were treated with 0.4% DMSO (as a control) and this concentration was maintained with XL5, XL5-PROTACs XL5-VHL, XL5-VHL-2, XL5-CRBN, or XL5-IAP, and E3 ligands VHL-Ac, thalidomide (Selleckchem, catalog NO. S1193), or IAP-Bz at 10 μM, 20 μM, 30 μM or 40 μM concentration. After 48 hours, 0.35 mg/mL MTT was added for 4 hours of incubation. Stop solution (40% DMF, 10% SDS (W/V), 25 mM HCl, 2.5% acetic acid in H2O) was added to the cells and incubated overnight. Absorbance at 570 nm was measured by using CLARIOstar (BMG LABTECH)."}},
  "note": "“Also recorded” adds a separate entry of the source.",
  "data": [
    {"smiles": "Cc1ncsc1-c1ccc([C@H](C)NC(=O)[C@@H]2C[C@@H](O)CN2C(=O)[C@@H](NC(=O)CCCCc2cn(-c3ccc(C(=O)Nc4cccc(/C=C(\\C#N)C(=O)Nc5ccccc5C(=O)O)c4)cc3)nn2)C(C)(C)C)cc1", "note": "[XL5-VHL-2]", "values": [
      {"measurement": "apoptosis induction (cleaved caspase-9)", "setting": "RPMI 8226 WT cells", "value": "poorer induction of cleaved caspase-9"},
      {"measurement": "IC50", "setting": "HCT116 WT cells", "value": "23.6 ± 4.7", "unit": "µM"},
      {"measurement": "cell viability (MTT)", "setting": "[1]", "value": "loss of activity"},
      {"measurement": "IC50", "setting": "MM.1S cells", "value": "5.9 ± 0.7", "unit": "µM"},
      {"measurement": "lower molecular weight hRpn13 species (hRpn13-Pru) level", "setting": "hRpn13 / hRpn13-Pru", "value": "less hRpn13-Pru loss; also recorded: reduced in abundance"},
      {"measurement": "higher molecular weight hRpn13 species characteristic of ubiquitination", "setting": "hRpn13 / hRpn13-Pru; longer exposure", "value": "increase in higher molecular weight hRpn13 species"},
      {"measurement": "metabolic activity / cell viability (MTT)", "setting": "RPMI 8226 cells; RPMI 8226, 48 hours, up to 40 μM", "value": "hook effect and lost"},
      {"measurement": "IC50", "setting": "RPMI 8226 cells; RPMI 8226, read-out: XL5-VHL-2 Sensitivity (IC50, μM) Cell viability assay", "value": "4.2 ± 1", "unit": "µM"}
    ]}
  ]
}
